The test system of this test is extracellular HBeAg level (surrogate marker for cccDNA) in HepDES19 cells. The test can be described thus: HepDES19 primary screen assay. The note with it: Hepatitis B virus, 120 h, 5 days compound incubation, HBeAg ELISA. It counts as cell-based, HBV. An excerpt:
The assay was employed to primarily screen for novel cccDNA inhibitors. HepDES19 is an engineered cell line which contains a 1.1 unit length HBV genome, and pgRNA transcription from the transgene is controlled by Tetracycline (Tet). In the absence of Tet, pgRNA transcription will be induced, but HBV e antigen (HBeAg) could not be produced from this pgRNA due to the fact that the very short leader sequence before the HBeAg start codondisrupted the start codon. Only after cccDNA is formed, the missing leader sequence and start codon mutation would be restored from the 3′-terminal redundancy of pgRNA, and then HBeAg could be synthesized. Therefore, HBeAg could be used as a surrogate marker for cccDNA (Zhou, T. et al., Antiviral Res(2006), 72(2), 116-124; Guo, H. et al., J. Virol (2007), 81(22), 12472-12484).
HepDES19 cells were seeded at 2×10^6 cells per T150 flask and cultured with the culture medium (Dulbecco's Modified Eagle Medium: Nutrient Mixture F-12 (DMEM:F12, Gibco Cat. 11320-82), 10% Fetal Bovine Serum (FBS, Clontech Cat. 631101), 0.1 mM Non-Essential Amino Acids Solution (NEAA, Gibco Cat. 11140-050), 50 μg/mL Penicillin-Streptomycin (PS, Invitrogen Cat. 15140-163), 500 μg/mL Geneticin (G418, Invitrogen Cat. 10131-027) containing 3 μg/mL Tet (Sigma, Cat. 87128) for 5 days. Cells were then seeded at 4×10^6 cells per T150 in the same culture medium as described above in the absence of Tet for 8 days. Cells were then harvested and frozen at density of 2×10^6 cells per mL. For compound testing, the frozen cells were thawed and seeded into 96-well plates at a density of 6×10^4 cells per well. At 24 hrs after seeding, half log serial dilutions of compounds made with Dimethyl sulfoxide (DMSO, Sigma, Cat. D2650) were further diluted with the same culture medium as described above before they were added to the cells to reach desired final compound concentrations and 1% DMSO concentration. Plates were then incubated at 37° C. for another 5 days before measurement of HBeAg level and cell viability. Extracellular HBeAg level were measured with enzyme-linked immunosorbent assay (ELISA) kit (Shanghai Kehua Diagnostic Medical Products Co., Ltd). Cell viability was assessed using Cell Counting Kit-8 (Donjindo, Cat. CK04-20). IC50 values were derived from the dose-response curve using 4 parameter logistic curve fit method.
The compounds of the present invention were tested for their capacity to inhibit extracellular HBeAg level as described herein.

pIC50: −log10 of the molar value.

Compound `O=c1c2ccc(N3CCCC3)cc2oc2c(Cl)cccc12` [Example 1, 5-chloro-3-pyrrolidin-1-yl-xanthen-9-one] had a pIC50 of 6.64. Turning to `O=C(O)CC1CCN(c2ccc3c(=O)c4cccc(Cl)c4oc3c2)C1` (centres unmarked) [Example 8, 2-[1-(5-chloro-9-oxo-xanthen-3-yl)pyrrolidin-3-yl]acetic Acid], the pIC50 was 5.12.

The compound `O=c1c2ccc(N3CCCCC3)cc2oc2c(F)cccc12` [Example 9, 5-fluoro-3-(1-piperidyl)xanthen-9-one] gave a pIC50 of 6.01.

`O=c1c2ccc(N3CCC(CO)C3)cc2oc2c(Cl)cccc12` (centres unmarked) [Example 10, 5-chloro-3-[3-(hydroxymethyl)pyrrolidin-1-yl]xanthen-9-one] had a pIC50 of 5.95.

Turning to `COC(=O)C1CCN(c2ccc3c(=O)c4cccc(Cl)c4oc3c2)C1` (centres unmarked) [Example 11, Methyl 1-(5-chloro-9-oxo-xanthen-3-yl)pyrrolidine-3-carboxylate], the pIC50 was 5.93. Next, `O=c1c2ccc(N3CCCC(O)C3)cc2oc2c(Cl)cccc12` (centres unmarked) [Example 12, 5-chloro-3-(3-hydroxy-1-piperidyl)xanthen-9-one]: 5.54; `O=c1c2ccc(N3CCCCCC3)cc2oc2c(F)cccc12` [Example 13, 3-(azepan-1-yl)-5-fluoro-xanthen-9-one]: 5.26; `O=C(O)C1CCCN(c2ccc3c(=O)c4cccc(Cl)c4oc3c2)C1` (centres unmarked) [Example 14, 1-(5-chloro-9-oxo-xanthen-3-yl)piperidine-3-carboxylic acid]: 5.24.

As to `O=C(O)[C@H]1CN(c2ccc3c(=O)c4cccc(Cl)c4oc3c2)C[C@@H]1c1ccc(F)cc1` [Example 15, (3R,4S)-1-(5-chloro-9-oxo-xanthen-3-yl)-4-(4-fluorophenyl)pyrrolidine-3-carboxylic Acid], the pIC50 is 5.13. In turn, `CC1(C(=O)O)CCN(c2ccc3c(=O)c4cccc(Cl)c4oc3c2)C1` (centres unmarked) [Example 16, 1-(5-chloro-9-oxo-xanthen-3-yl)-3-methyl-pyrrolidine-3-carboxylic Acid] had a pIC50 of 4.95. As to `CC1(C)CN(c2ccc3c(=O)c4cccc(Cl)c4oc3c2)CC1C(=O)O` (centres unmarked) [Example 17, 1-(5-chloro-9-oxo-xanthen-3-yl)-4,4-dimethyl-pyrrolidine-3-carboxylic Acid], the pIC50 was 4.90.

The compound `O=C(O)[C@H]1CN(c2ccc3c(=O)c4cccc(Cl)c4oc3c2)C[C@@H]1c1cccnc1` [Example 18, (3R,4S)-1-(5-chloro-9-oxo-xanthen-3-yl)-4-(3-pyridyl)pyrrolidine-3-carboxylic Acid] showed a pIC50 of 4.78. `O=C(O)C1(C(F)(F)F)CCN(c2ccc3c(=O)c4cccc(Cl)c4oc3c2)C1` (centres unmarked) [Example 19, 1-(5-chloro-9-oxo-xanthen-3-yl)-3-(trifluoromethyl)pyrrolidine-3-carboxylic Acid] showed a negative logarithm of the IC50 (pIC50) of 4.57. Compound `O=C(O)[C@@H]1CN(c2ccc3c(=O)c4cccc(Cl)c4oc3c2)C[C@H]1c1ccc(Cl)cc1` [Example 20, (3S,4R)-1-(5-chloro-9-oxo-xanthen-3-yl)-4-(4-chlorophenyl)pyrrolidine-3-carboxylic Acid] gave a pIC50 of 4.33. The compound `O=c1c2ccc(N3CCCC3)cc2oc2c(F)cccc12` [Example 21, 5-fluoro-3-pyrrolidin-1-yl-xanthen-9-one] had a pIC50 of 6.57. `O=c1c2ccc(N3CCCC3)cc2oc2c(F)ccc(Cl)c12` [Example 22, 1-chloro-4-fluoro-6-pyrrolidin-1-ylxanthen-9-one] had a pIC50 of 6.13.

The compound `O=C1CCCN1c1ccc2c(=O)c3cccc(F)c3oc2c1` [Example 23, 1-(5-fluoro-9-oxo-xanthen-3-yl)pyrrolidin-2-one] had a negative logarithm of the IC50 (pIC50) of 6.08. As for `O=c1c2ccc(N3CCC(O)C3)cc2oc2c(F)cccc12` (centres unmarked) [Example 24, 5-fluoro-3-(3-hydroxypyrrolidin-1-yl)xanthen-9-one], the figure is 5.98; as for `Cc1cc2c(=O)c3cccc(F)c3oc2cc1N1CCCC1` [Example 25, 5-fluoro-2-methyl-3-pyrrolidin-1-yl-xanthen-9-one], 5.82. `O=c1c2ccc(N3CC[C@H](O)C3)cc2oc2c(Cl)cccc12` [Example 27, 5-chloro-3-[(3S)-3-hydroxypyrrolidin-1-yl]xanthen-9-one]: the pIC50 was 5.71. `O=c1c2cc(F)c(N3CCCC3)cc2oc2c(F)cccc12` [Example 28, 2,5-difluoro-3-pyrrolidin-1-yl-xanthen-9-one] gave a pIC50 of 5.73.

`O=c1c2ccc(N3CCOCC3)cc2oc2c(F)cccc12` [Example 29, 5-fluoro-3-morpholino-xanthen-9-one]: the negative-log IC50 (pIC50) was 5.67.

`O=c1c2ccc(N3CC[C@@H](O)C3)cc2oc2c(Cl)cccc12` [Example 30, 5-chloro-3-[(3R)-3-hydroxypyrrolidin-1-yl]xanthen-9-one]: the pIC50 is 5.58.

`O=c1c2ccc(N3CC[C@H](O)C3)cc2oc2c(F)cccc12` [Example 31, 5-fluoro-3-[(3S)-3-hydroxypyrrolidin-1-yl]xanthen-9-one] showed a pIC50 of 5.57. The compound `O=c1c2ccc(N3CC[C@@H](O)C3)cc2oc2c(F)cccc12` [Example 32, 5-fluoro-3-[(3R)-3-hydroxypyrrolidin-1-yl]xanthen-9-one] showed a pIC50 of 5.57.

Turning to `COC1CCN(c2ccc3c(=O)c4cccc(F)c4oc3c2)C1` (centres unmarked) [Example 33, 5-fluoro-3-(3-methoxypyrrolidin-1-yl)xanthen-9-one], the pIC50 was 5.39. With `O=c1c2ccc(N3CCC(c4ccncc4)C3)cc2oc2c(F)cccc12` (centres unmarked) [Example 34, 5-fluoro-3-[3-(4-pyridyl)pyrrolidin-1-yl]xanthen-9-one], the pIC50 is 5.21.

Regarding `O=c1c2ccc(N3CCCC3)cc2oc2c(F)cc(Cl)cc12` [Example 35, 2-chloro-4-fluoro-6-pyrrolidin-1-yl-xanthen-9-one], the pIC50 was 4.78. Take `O=C(O)C1CCCN1c1ccc2c(=O)c3cccc(Cl)c3oc2c1` (centres unmarked) [Example 36, 1-(5-chloro-9-oxo-xanthen-3-yl)pyrrolidine-2-carboxylic Acid]: the pIC50 was 4.94.

Compound `O=C(O)C1CCN(c2ccc3c(=O)c4cccc(C(F)(F)F)c4oc3c2)C1` (centres unmarked) [Example 37, 1-[9-oxo-5-(trifluoromethyl)xanthen-3-yl]pyrrolidine-3-carboxylic Acid] showed a pIC50 of 4.87.

With `CN1CCN(c2ccc3c(=O)c4cccc(F)c4oc3c2)CC1` [Example 38, 5-fluoro-3-(4-methylpiperazin-1-yl)xanthen-9-one], the pIC50 is 4.79. The compound `O=c1c2cnc(N3CCCC3)cc2oc2c(F)cccc12` [Example 45, 6-fluoro-3-pyrrolidin-1-yl-chromeno[3,2-c]pyridin-10-one] showed a pIC50 of 6.29.

The compound `CN(C)C(=O)C1CCN(c2ccc3c(=O)c4cccc(Cl)c4oc3c2)C1` (centres unmarked) [Example 46, 1-(5-chloro-9-oxo-xanthen-3-yl)-N,N-dimethyl-pyrrolidine-3-carboxamide] gave a pIC50 of 5.37.

With `O=c1c2ccc(N3CCC4(CNC4)C3)cc2oc2c(F)cccc12` [Example 47, 3-(2,6-diazaspiro[3.4]octan-6-yl)-5-fluoro-xanthen-9-one], the pIC50 was 5.32.

The compound `O=c1c2ccc(N3CCC4(CCNC4)C3)cc2oc2c(F)cccc12` (centres unmarked) [Example 48, 3-(2,7-diazaspiro[4.4]nonan-2-yl)-5-fluoro-xanthen-9-one] showed a pIC50 of 5.26. Next, `O=c1c2ccc(N3CCCNCC3)cc2oc2c(F)cccc12` [Example 49, 3-(1,4-diazepan-1-yl)-5-fluoro-xanthen-9-one]: 5.12. `N[C@H]1CCN(c2ccc3c(=O)c4cccc(F)c4oc3c2)C1` [Example 50, 3-[(3S)-3-aminopyrrolidin-1-yl]-5-fluoro-xanthen-9-one] gave a pIC50 of 5.51. As for `N[C@@H]1CCN(c2ccc3c(=O)c4cccc(F)c4oc3c2)C1` [Example 51, 3-[(3R)-3-aminopyrrolidin-1-yl]-5-fluoro-xanthen-9-one], the figure is 5.31; as for `Fc1cccc2c1Oc1cc(N3CCCC3)ccc1C21CCCO1` (centres unmarked) [Example 52, 1-(5′-fluorospiro[tetrahydrofuran-2,9′-xanthene]-3′-yl)pyrrolidine], 4.84; as for `CC1c2ccc(N3CCCC3)cc2Oc2c(Cl)cccc21` (centres unmarked) [Example 54, 1-(5-chloro-9-methyl-9H-xanthen-3-yl)pyrrolidine], 5.80. In turn, `Clc1cccc2c1Oc1cc(N3CCCC3)ccc1C2` [Example 55, 1-(5-chloro-9H-xanthen-3-yl)pyrrolidine] showed a pIC50 of 5.95.

Values taken from US10611748B2, “Xanthone derivatives for the treatment of hepatitis B virus disease” (Hoffmann-La Roche Inc., priority 2017, dated 2020).
